Measurements reported in patent US20250195599A1, “ANTI-DIABETIC STEROIDAL LACTONES OF WITHANIA COAGULANS FOR TREATMENT OF TYPE 2 DIABETES” (Khalifa University of Science and Technology, priority 2022, published 2025).

Tests used:
D-HSMM myotubes = experiment: Insulin-stimulated 2-NBDG glucose uptake in D-HSMM myotubes; assay type: cell-based, human; settings: FIG. 7
Protocol: Insulin-stimulated 2-NBDG uptake: The ability of the test compounds on insulin-stimulated glucose uptake was measured using the Glucose Uptake Cell-Based Assay Kit (Cat no: 600470, Cayman, Michigan, USA) according to the manufacturer's instructions. Briefly, the cells were seeded at a density of 2×10^3 cells/well in a 96 well black, clear-bottom poly D lysine coated plate and allowed to grow with a media change after every 48 hours. […] Subsequently, cells were washed with 300 μl PBS three times and incubated with PBS for 5 mins at 37° C., in a CO2 incubator. Cells were challenged for 20 min with 50 μl of 100 nM insulin and 50 μl of 100 μg/ml fluorescent glucose analog 2-deoxy-2-[(7-nitro-2,1,3-benzoxadiazol-4-yl) amino]-D-glucose (2-NBDG) in Krebs/Ringer buffer (KRB) (118.5 mM NaCl, 25 mM NaHCO3, 4.74 mM KCl, 1.19 mM MgSO4, 2.54 mM CaCl2, 10 mM HEPES, 1.19 mM KH2PO4, 0.1% BSA) (pH 7.4). At the end of the incubation, the plates were centrifuged for 3 mins at 400×g at room temperature, and the supernatant was aspirated. Cells were washed with 200 μl/well cell-based assay buffer and centrifuged for 3 mins at 400×g at room temperature. […] The fluorescence reading of each well was immediately measured (excitation/emission=485 nm/535 nm) by using a Tecan multimode plate reader (Cat no: M200, Tecan, Switzerland). […]

myogenin = experiment: Myogenin immunofluorescence staining in D-HSMM; assay type: cell-based, human; settings: 48 h, optimum concentration, vs. D-HSMM control (untreated cells), FIG. 3A
Protocol: The supernatant was removed, cells were washed with warm PBS (37° C.), fixed with 100 μl PBS containing 4% paraformaldehyde at room temperature for 10 mins. Cells were permeabilized with 100 μl of 0.25% Triton X-100 on PBS for 10 mins at 25° C. The cells were then blocked with 100 μl of 10% normal goat serum (NGS), incubated with 50 μl of primary anti-myogenin antibody (Cat no: MAB3876, Merck Millipore, USA) diluted 1:500 in block solution overnight at 4° C. Cells were washed in PBS (200 μl) three times, incubated with 50 μl Goat anti-Mouse IgG (H+L) secondary antibody (Cross adsorbed, Alexa Fluor 594, Cat no: R37121, Thermo Fisher Scientific, USA) at room temperature for 30 min. Nuclei were counterstained with 1 μg/ml Hoechst 33342 solution (Cat no: 62249, Thermo Fisher Scientific, USA) in PBS (100 μl/well). For each treatment, cells were examined under EVOS F1 Microscope (Cat no: AMF4300, Life Technologies, USA) and photographed. Approximately 10-12 digital photographs were taken of each treatment for subsequent offline analysis. The total number of immune-positive and immuno-negative cells were counted using Image J (NIH, USA) software. […] Data were presented as a percentage of control (untreated cells).

MAFbx/atrogin-1 = experiment: Atrogin-1/Fbx32 immunofluorescence staining in D-HSMM; assay type: cell-based, human; settings: 48 h, optimum concentration, vs. control (non-treated cells), FIG. 4A
Protocol: The supernatant was removed, cells were washed with warm PBS (37° C.), fixed with phosphate-buffered saline (PBS) containing 4% paraformaldehyde at room temperature for 10 mins. Cells were permeabilized with 0.25% Triton X-100 on PBS for 10 mins at 25° C. The cells were then blocked with 100 μl of 10% NGS in PBS at room temperature for 2 hours. The cells were then incubated with 50 μl primary Anti-Fbx32 antibody (Cat no: NBP2-76836, Novus Biological, USA) diluted 1:100 in block solution overnight at 4° C. Cells were washed in PBS three times (200 μl), incubated with 50 μl Goat anti-Rabbit IgG (H+L) (Cross adsorbed, Alexa Fluor 488, Cat no: R37116, Thermo Fisher Scientific, USA) secondary antibody at room temperature for 30 min. Nuclei were counterstained with 1 μg/ml Hoechst 33342 solution (Cat no: 62249, Thermo Fisher Scientific, USA) in PBS (100 μl/well). For each treatment, cells were examined under EVOS F1 Microscope (Cat no: AMF4300, Life Technologies, USA) and photographed. Approximately 10-12 digital photographs were taken of each treatment for subsequent offline analysis. The total number of immune-positive and immuno-negative cells were counted using Image J (NIH, USA) software. […] Data were presented as a percentage of control (untreated cells).

MyoD = experiment: MyoD1 immunofluorescence staining in D-HSMM; assay type: cell-based, human; settings: for MyoD positive cells: optimum concentration, vs. D-HSMM control (non-treated cells)
Protocol: The supernatant was removed, cells were washed with warm PBS (37° C.), fixed, and permeabilized with 100 μl phosphate-buffered saline (PBS) containing 4% paraformaldehyde and 0.1% Triton X-100 at room temperature for 10 mins. Next, cells were blocked with 1% BSA (100 μl) in PBS at room temperature for 1 hour. The cells were then incubated with 50 μl of primary anti-MyoD1 antibody (Cat no: ab16148, Abcam, USA), diluted 1:100 in a block solution, overnight at 4° C. Cells were washed in PBS three times, incubated with 50 μl Goat anti-Mouse IgG (H+L) secondary antibody (Cross adsorbed, Alexa Fluor 594, Cat no: R37121, Thermo Fisher Scientific, USA) at room temperature for 30 min. Nuclei were counterstained with 1 μg/ml Hoechst 33342 solution (Cat no: 62249, Thermo Fisher Scientific, USA) in PBS (100 μl/well). For each treatment, cells were examined under EVOS F1 Microscope (Cat no: AMF4300, Life Technologies, USA) and photographed. Approximately 10-12 digital photographs were taken of each treatment for subsequent offline analysis. The total number of immune-positive and immuno-negative cells were counted using Image J (NIH, USA) software. […] Data were presented as a percentage of control (untreated cells).

[1] = tested on: Diseased Human Skeletal Muscle Myoblasts (D-HSMM) diabetes type II; assay type: cell-based
Protocol: Measurement of cellular viability: Cell proliferation was measured by using MTT 3-(4,5-dimethylthiazol-2-yl)-2,5-diphenyltetrazolium bromide (MTT) (Cat no: M2128, Sigma Aldrich, USA). […] After 48 h of incubation, plates were removed from the CO2incubator and washed with 200 μl PBS. Thereafter, 100 μl of MTT solution (0.5 mg/ml in SkGM-2 medium) was added to each well. The contents were placed on a shaker for 5 min and were incubated for 4 hours in a CO2 incubator to allow the MTT to be metabolized. After incubation, the supernatant was removed, and the plate was washed with 300 μl PBS. The plates were inverted and strongly tapped on a paper towel to remove the medium completely. […] For the blank control, wells were set without cells but received all the reagents.

GLUT4 = experiment: Total GLUT4 immunofluorescence in D-HSMM myotubes; assay type: cell-based, human; settings: FIG. 6B; for expression of GLUT-4: treated 24 h on day 8, 100 nM insulin challenge, vs. D-HSMM control (untreated cell)
Protocol: Measurement of Total GLUT4: Approximately 2×10^3 cells were seeded in a 96 well clear bottom black poly D lysine (5 μg/cm^2) coated plate and allow to grow with a media change after every 48 h. […] The supernatant was removed and challenged for 5 mins with 100 nM insulin. Next, cells were washed with warm PBS (37° C.), fixed with phosphate-buffered saline (PBS) containing 4% paraformaldehyde at room temperature for 10 mins. Cells were permeabilized with 0.5% Triton X-100 on PBS for 10 mins at 25° C. The cells were then blocked with 100 μl of 10% NGS in PBS at room temperature for 2 hours. The cells were then incubated with 50 μl GLUT4 antibody (Cat no: NBP1-49533, Novus Biological, USA) diluted 1:100 in block solution overnight at 4° C. Cells were washed in PBS three times (200 μl), incubated with 50 μl Goat anti-Rabbit IgG (H+L) (Cross adsorbed, Alexa Fluor 488, Cat no: R37116, Thermo Fisher Scientific, USA) secondary antibody at room temperature for 30 min. Total fluorescence was measured m at […] (excitation/emission) by Tecan multimode plate reader (M200, Tecan, Switzerland). Cells without primary antibody were used for blank reduction. The relative GLUT 4 (%) related to control wells containing cells with DMEM:F12 medium was calculated by (RFU) test/(RFU) control×100. Where (RFU) test is the fluorescence of the test sample and (RFU) control is the fluorescence of the control sample.

urease = settings: stated as background knowledge; cited from earlier work
GLUT1 = experiment: Cell-based GLUT1 ELISA in D-HSMM myotubes; parameters: species or system human; settings: treated 24 h on day 8, FIG. 6A
Protocol: After 24 hours, GLUT1 was measured by using CytoGlow™ cell-based GLUT 1 ELISA kit (Cat no: MBS95002558, MyBioSource, USA), according to the manufacturer's protocol. Briefly, cells were fixed with phosphate-buffered saline (PBS) containing 4% paraformaldehyde at room temperature for 20 mins. Next, cells were quenched for 20 mins at room temperature. Cells were washed in PBS three times, blocked at room temperature for 1 hour. Cells were washed in PBS three times, incubated with primary GLUTI antibody overnight at 4° C. Cells were washed in PBS three times (200 μl), incubated with HRP-conjugated secondary antibody at room temperature for 1.5 hours. Cells were washed in PBS three times and incubated with a ready-to-use substrate for 30 minutes at room temperature in the dark with gentle shaking on the shaker. The reaction was stopped, and OD was measured at 450 nm immediately using an Emax Plus microplate reader (Molecular devices, CA 94089, USA).

bovine embryo = settings: stated as background knowledge; cited from earlier work
[2] = tested on: Diseased Human Skeletal Muscle Myoblasts (D-HSMM) diabetes type II; experiment: LDH release cytotoxicity assay; settings: D-HSMM myoblasts treated 48 h; W. Coagulans and Coagulansin-A 1×10^−15 g/ml; vs. control (non-treated cells); FIG. 2A
Protocol: Cell line: The Clonetics® Diseased Human Skeletal Muscle Myoblasts (D-HSMM) diabetes type II, (Cat no: CC-2901) sourced from a donor, were purchased from Lonza (Lonza Bioscience, USA).
Cells were cultured in the growth medium, Skeletal Muscle Growth Media-2 (SkGM-2; CC-3244) containing basal medium, Human epidermal growth factor (hEGF), Dexamethasone, L-glutamine, Fetal Bovine Serum (FBS), and Gentamicin/Amphotericin B (GA-1000). Cells were seeded at 6250 cells/cm^2 in T175 flasks and maintained at 37° C. in a humidified incubator (Thermo Scientific, USA) containing 5% carbon dioxide (CO2). After 24 hours, when cells adhered to the bottom of the flask, media was changed every 24-48 hours. […]
The cytotoxicity detection kit (Cat no: 11644793001, Roche, USA) was used to measure lactate dehydrogenase (LDH) release according to the manufacturer's instructions. Briefly, released LDH in culture supernatants was measured with a 30-mins coupled enzymatic assay that results in the reduction of tetrazolium salt, Iodotetrazolium chloride (INT) into a formazan (red). […] Absorbance at 490 nm was measured with an Emax Plus microplate reader (CA 94089, Molecular devices, USA). The reader was calibrated to zero absorbance using a culture medium without cells. The untreated cells served as the control, and results were calculated as the percentage of viability in relation to the control. […]

| Compound | insulin-stimulated glucose uptake (2-NBDG) (D-HSMM myotubes; treated 24 h, vs. control (untreated cells)) | insulin-stimulated glucose uptake compared to positive controls (D-HSMM myotubes; vs. insulin, metformin, and pioglitazone) | expression of myogenin (myogenin) | expression of atrogin1 (MAFbx/atrogin-1) | MyoD positive cells compared to metformin and pioglitazone (MyoD; D-HSMM myoblasts, 48 h, vs. metformin and pioglitazone treated cells, FIG. 5A) | MyoD positive cells (MyoD; D-HSMM, 48 h, FIG. 5A) | MyoD positive cells, dose optimization (MyoD; D-HSMM, concentration 10^−15 g/ml (of 10^−13, 10^−15, 10^−17 g/ml tested), vs. diabetic control, FIG. 9) | MTT metabolic rate, dose optimization [1] | MTT viability [1] | expression of GLUT-4 (GLUT4) | expression of GLUT-4 compared to metformin (GLUT4; vs. metformin (as printed in text)) | antiurease activity (urease) | expression of GLUT1 (GLUT1) | effects on development of bovine embryo (bovine embryo) | LDH release [2] |
| --- | --- | --- | --- | --- | --- | --- | --- | --- | --- | --- | --- | --- | --- | --- | --- |
| CC1=C(CO)C(=O)O[C@@H]([C@](C)(O)[C@]2(O)CC[C@@]3(O)C4CC=C5CC=CC(=O)[C@]5(C)C4CC[C@]23C)C1 (stereo partly drawn) [Coagulansin-A, (14α, 17S,20S,22R)-14, 17,20,27-tetrahydroxy-1-oxowitha-2,5,24-trienolide)] | significantly enhanced glucose uptake | increased glucose uptake | significantly increased expression | significantly suppressed expression | Significantly increased MyoD positive cells | enhanced expression | enhanced expression | did not affect the metabolic rate | did not affect the viability | upregulated | significant increase | antiurease activity | remained unaffected | beneficial effects on development of bovine embryo |  |
| CN(C)C(=N)N=C(N)N [Metformin] |  |  | remained unaffected | significantly suppressed expression |  | did not show any difference |  |  |  |  |  |  |  |  |  |
| Insulin |  |  | significantly increased expression | significantly suppressed expression |  | enhanced expression |  |  |  | upregulated |  |  |  |  | significant decrease |
| COc1ccc(Cl)cc1C(=O)NCCc1ccc(S(=O)(=O)NC(=O)NC2CCCCC2)cc1 [Glibenclamide, reference compound] |  |  |  |  |  | enhanced expression |  |  |  |  |  |  |  |  |  |
